Several values for one entry are separate records, joined by “and”; a condition that tells them apart may be missing. Equal values may be shown once.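 Test compounds were applied to cells in 96-well plates for 48 hours at 5 doses. At the GI50, growth is halved. TGI is the concentration that stops growth completely.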

GI50 and TGI data for eight molecules are collected here from PubChem BioAssay (NCI).

Among the test systems are NCI-H522 lung; SF-539 CNS; MCF7 breast; HT29 colon; HOP-62 NSCLC; RPMI-8226 leukemia; MALME-3M melanoma; OVCAR-8 ovarian; SK-MEL-5 melanoma; M14 melanoma.
What all share (experiment): DTP human tumour cell line panel, 48 h

Regarding `Cc1ccc(N=Nc2c(N)nn(-c3ccccc3)c2N)cc1`, the GI50 is 1 µM in the assay on NCI-H522 lung; 1.78 µM in the assay on SF-539 CNS; 0.67 µM in the assay on MCF7 breast; 0.353 µM with HT29 colon; 2.49 µM in the assay with HOP-62 NSCLC; 1.61 µM in the assay with RPMI-8226 leukemia. The GI50 in the assay on OVCAR-8 ovarian was 4.27 µM; in the assay on SK-MEL-5 melanoma it was 1.65 µM; in the assay on M14 melanoma, 1.04 µM. In addition, the TGI with NCI-H522 lung is more than 100 µM; in the assay on SF-539 CNS, more than 22.8 µM; in the assay with MCF7 breast it was more than 100 µM; with RPMI-8226 leukemia, 42 µM; in the assay on MALME-3M melanoma, more than 100 µM; with OVCAR-8 ovarian, more than 100 µM. Further, the TGI in the assay on SK-MEL-5 melanoma and in the assay on M14 melanoma was more than 100 µM throughout.
Take `CCOC(=O)c1ccc(Nc2sc(C(=O)c3cccc([N+](=O)[O-])c3)c(N)c2C#N)cc1`: the GI50 with NCI-H522 lung was 0.0277 µM; in the assay with SF-539 CNS, 0.0885 µM; with MCF7 breast, 0.102 µM; in the assay on HT29 colon it was 0.0398 µM; with HOP-62 NSCLC, 0.108 µM; in the assay on RPMI-8226 leukemia it was 0.333 µM. For the same molecule, the GI50 with MALME-3M melanoma was 0.0754 µM; in the assay with OVCAR-8 ovarian, 1.4 µM; in the assay on SK-MEL-5 melanoma, 0.156 µM; in the assay with M14 melanoma, 0.213 µM. For the same molecule, the TGI with NCI-H522 lung was found to be 0.852 µM; in the assay on SF-539 CNS, 13.2 µM; in the assay on MCF7 breast, 13.2 µM; with HT29 colon, 3.12 µM; in the assay with HOP-62 NSCLC, 6.39 µM; with RPMI-8226 leukemia it was 20.3 µM. The concentration for total growth inhibition (TGI) with MALME-3M melanoma came out at 23 µM; with OVCAR-8 ovarian it was 10.4 µM; with SK-MEL-5 melanoma, 12.2 µM; with M14 melanoma, 23.9 µM.
Consider `ICCC(c1ccccc1)(c1ccccc1)c1ccccc1`, for which the GI50 in the assay with NCI-H522 lung is 8.35 µM; with SF-539 CNS, 3.61 µM; with MCF7 breast, 10.6 µM; with HT29 colon, 2.34 µM; with HOP-62 NSCLC, 11.6 µM; with RPMI-8226 leukemia it was 3.72 µM. Moreover, the GI50 is 1.9 µM with MALME-3M melanoma, 11.4 µM with OVCAR-8 ovarian, 3.23 µM in the assay with SK-MEL-5 melanoma and 1.92 µM in the assay on M14 melanoma. Also, the TGI in the assay with NCI-H522 lung was determined as 22.7 µM; in the assay with SF-539 CNS it was 16.1 µM; in the assay on MCF7 breast, 26.7 µM; with HT29 colon it was 9.07 µM; in the assay with HOP-62 NSCLC, 24 µM; in the assay on RPMI-8226 leukemia, 17.1 µM. Also, the concentration for total growth inhibition (TGI) in the assay with MALME-3M melanoma was 3.6 µM; in the assay with OVCAR-8 ovarian, 25.5 µM; with SK-MEL-5 melanoma, 11.2 µM; in the assay on M14 melanoma, 3.72 µM.
Turning to `C[C@H]1[C@H](C)CC[C@]2(C(=O)O)CC[C@]3(C)C(=CC[C@@H]4[C@@]5(C)CC[C@H](OC(=O)/C=C/c6ccc(O)cc6)C(C)(C)[C@@H]5CC[C@]43C)[C@H]12`, the GI50 in the assay with NCI-H522 lung is 9.45 µM; in the assay on SF-539 CNS, 3.8 µM; in the assay with MCF7 breast, 3.02 µM; in the assay with HT29 colon, 18.8 µM; in the assay on HOP-62 NSCLC, 3.63 µM; with RPMI-8226 leukemia it was 5.49 µM. Also, the GI50 was 1.9 µM in the assay on MALME-3M melanoma, 2.8 µM with OVCAR-8 ovarian, 4.91 µM in the assay on SK-MEL-5 melanoma and 4.13 µM with M14 melanoma. For the same molecule, the total growth inhibition concentration (TGI) in the assay on NCI-H522 lung is 23 µM; in the assay with SF-539 CNS it was 10.2 µM; with MCF7 breast, 34.4 µM; with HT29 colon, more than 100 µM; with HOP-62 NSCLC, 7.03 µM; in the assay on RPMI-8226 leukemia, 48.5 µM. Moreover, the TGI with MALME-3M melanoma was determined as 20 µM; in the assay on OVCAR-8 ovarian, 18.3 µM; in the assay with SK-MEL-5 melanoma, 14.9 µM; in the assay on M14 melanoma, 12.5 µM.
Regarding `CC[C@H](C)[C@H](NC(=O)Nc1ccccc1)C(=O)N(C)[C@H](C[C@@H](OC(C)=O)c1nc(C(=O)N[C@@H](Cc2ccccc2)C[C@H](C)C(=O)OC)cs1)C(C)C`, the GI50 in the assay with NCI-H522 lung is 1.5 µM; in the assay with SF-539 CNS, 2.37 µM; with MCF7 breast, 1.27 µM; in the assay with HT29 colon it was 3.33 µM; with HOP-62 NSCLC it was 3.66 µM; with RPMI-8226 leukemia, 2.03 µM. Further, the GI50 with MALME-3M melanoma is 98.2 µM; in the assay on OVCAR-8 ovarian it was 4.69 µM; with SK-MEL-5 melanoma, 1.73 µM; in the assay on M14 melanoma, 2.19 µM. Besides, the TGI in the assay on NCI-H522 lung is 21.1 µM; in the assay on SF-539 CNS it was 6.85 µM; in the assay on MCF7 breast, more than 100 µM; in the assay with HT29 colon, more than 100 µM; in the assay on HOP-62 NSCLC, more than 100 µM; in the assay with RPMI-8226 leukemia it was more than 100 µM. In addition, the TGI was more than 100 µM in the assay with MALME-3M melanoma, more than 100 µM with OVCAR-8 ovarian, 12.4 µM in the assay with SK-MEL-5 melanoma and 5.84 µM with M14 melanoma.
Consider `O=C(O)c1ccc(NCc2nc3cc4ccccc4cc3[nH]2)cc1`, for which the TGI is more than 100 µM with NCI-H522 lung; more than 100 µM in the assay with SF-539 CNS; 46.9 µM in the assay on MCF7 breast; more than 100 µM in the assay on HT29 colon; more than 100 µM with HOP-62 NSCLC; more than 100 µM in the assay with RPMI-8226 leukemia. For the same molecule, the TGI is 0.237 µM in the assay on MALME-3M melanoma, more than 100 µM in the assay on OVCAR-8 ovarian, more than 72.7 µM in the assay with SK-MEL-5 melanoma and more than 100 µM in the assay with M14 melanoma.
Consider `C/C(=N\NC(=O)c1ccccc1O)c1cccc(/C(C)=N/NC(=O)c2ccccc2O)n1`, for which the GI50 was 4.75 µM and 0.856 µM in the assay with NCI-H522 lung; 5.96 µM and 0.918 µM in the assay on SF-539 CNS; 7.8 µM in the assay on MCF7 breast; 0.467 µM with HOP-62 NSCLC; more than 100 µM in the assay with RPMI-8226 leukemia; 0.522 µM in the assay on MALME-3M melanoma. In addition, the GI50 in the assay on OVCAR-8 ovarian is 0.571 µM; in the assay with SK-MEL-5 melanoma, 0.621 µM. Further, the TGI in the assay with NCI-H522 lung is 27.8 µM and > 100 µM; with SF-539 CNS, 23.3 µM and > 100 µM; in the assay on MCF7 breast, more than 100 µM; with HT29 colon, more than 100 µM; with HOP-62 NSCLC, 31.7 µM and 6.42 µM; in the assay with RPMI-8226 leukemia, more than 100 µM. The TGI with MALME-3M melanoma was 43.9 µM and > 100 µM; with OVCAR-8 ovarian, 51.6 µM and > 100 µM; with SK-MEL-5 melanoma, 44.9 µM and > 48 µM; with M14 melanoma, more than 100 µM.
As for `O=C1c2ccccc2-c2n[nH]c3cccc1c23`, the GI50 in the assay with NCI-H522 lung is 15.7 µM; in the assay on SF-539 CNS it was 25.1 µM; in the assay on MCF7 breast, 21.1 µM; in the assay on HT29 colon it was 12.9 µM; in the assay with HOP-62 NSCLC, 32.1 µM; in the assay on RPMI-8226 leukemia, 14.1 µM. Moreover, the results for the GI50 in the assay on MALME-3M melanoma, with SK-MEL-5 melanoma and in the assay on M14 melanoma were 24.1 µM, 25.6 µM and 5.03 µM, respectively. The TGI in the assay on NCI-H522 lung is 50.4 µM and > 92.8 µM; with SF-539 CNS, more than 100 µM; in the assay with MCF7 breast it was more than 100 µM; with HT29 colon it was more than 100 µM; in the assay with HOP-62 NSCLC, more than 100 µM; with RPMI-8226 leukemia, more than 100 µM. The TGI in the assay with MALME-3M melanoma was 58.9 µM and > 86.8 µM; with OVCAR-8 ovarian, more than 100 µM; with SK-MEL-5 melanoma, 37.5 µM and > 94.6 µM; with M14 melanoma it was more than 100 µM.
